In patent US5132429A, “Benzotriazole derivatives and fluorescence-emitting reagents thereof” (priority 1988, dated 1992):

Assays:
[1] = target: α1-AG (α1-acid glycoprotein); assay: Binding constant of basic drug to α1-AG by displacement of compound 1 (fluorescence probe method, Klotz formula); conditions: 0.1M phosphoric acid buffer pH 7.4; 3×10^-6 M α1-AG; compound 1 as probe
Protocol: (§1) Two different kinds of solutions, one containing α1 -AG and a compound of this invention listed above, the other containing α1 -AG, the compound of this invention, and a drug, are prepared to measure fluorescence intensity at the excitation. fluorescence wavelength, as shown in Table 2. According to the working curve made beforehand, the binding rate of the compound to α1 -AG in each solution is determined and the binding constant of a drug to α1-AG is calculated from the difference between the binding rates in the presence and the absence of a drug.
(§2) In the fluorescence cell made of quartz with a plug was placed the buffer solution of 0.1M phosphoric acid (2 ml) which pH is 7.4 and containig 1×10^-4 M α1 -AG, to which 5×10^-4 M aqueous solution of the compound 1 was added by 2 μl each with a microcylinder, which was prepared by dissolving about 3 mg of the compound 1 in 1N hydrochloric acid (1 ml), followed by diluting with water to make the total volume 200 times, and the resulting solution was mixed fully to determine fluorescence intensity at 508 nm (excitation wavelength: 418 nm).
(§3) For the buffer solution of 0.1M phosphoric acid (2 ml) which pH is 7.4 and containing 3×10^-6 M α1 -AG, the same procedure as in Example 1 was performed.
As for the other basic drugs shown in Table 3, binding constant were obtained according to the same manner as in Example 11.

[2] = tested on: α1-AG; conditions: cited from earlier work
[3] = tested on: α1-AG (α1-acid glycoprotein); assay: Binding of compound to α1-AG by fluorescence titration, Scatchard analysis; conditions: for binding of the compound 1 to α1-AG: pH 7.4
Protocol: as §2, §3
The binding rate (X) of the compound 1 to α1 -AG was introduced from the following formula (1) [formula]
In this scheme, Fb is fluorescence intensity at some concentration of the compound 1 which was obtained in Experiment 1, Fp is fluorescence intensity at the same concentration of the compound 1 which was obtained in Example 2, and Fo is blank value.
The value introduced from the binding rate at each concentration of the compound 1 was plotted accoding to the formula (2) of Scatchard, whereby the binding parameter of the compound 1 to α1 -AG was obtained.
In this scheme, r is the amount of binding of the compound 1 per α1 -AG (1 mole), n is the number of binding site, Ka is the binding constant of the compound 1, Df is the concentration of the compound 1 which is free form.

[4] = tested on: Human Serum Albumine; assay: Fluorescence (excitation and fluorescence wavelength) with human serum albumin; type: physicochemical
Protocol: A solution containing a compound is added to a solution containing albumin and the mixed solution is subjected to determination of fluorescence intensity at excitation. fluorescence wavelength as shown in Table 2. According to the working curve on the standard albumin solution made beforehand, the concentration of albumin in the sample solution is determined.

[5] = tested on: α1-AG; assay: Fluorescence (excitation and fluorescence wavelength) with α1-AG; type: physicochemical
Protocol: as §1
Sulfosalicylic acid is added to the sample solution containing α1 -AG to remove coexisting proteins, to which the solution containing a compound is added. The mixed solution is subjected to determination of fluorescence intensity at excitation. fluorescence wavelength as shown in Table 2. According to the working curve on the standard solution of α1 -AG, the concentration of α1-AG in the sample is determined.

Row | log Kb (binding constant) [1] | Excitation Wavelength [4] | Fluorescence Wavelength [4] | Excitation Wavelength [5] | Fluorescence Wavelength [5] | Structure (SMILES) | other results
1 | 5.58 |  |  |  |  | CN(C)CCC=C1c2ccccc2CCc2ccccc21 [Amitriptyline] | 
2 |  |  |  |  |  | CN(C)c1ccc(C(=N)c2ccc(N(C)C)cc2)cc1 [Auramin O] | binding strength to α1-AG ([2]; Y. Sugiyama et al, Biochem. Pharmcol. 34(6), 821-829 (1985)): very weak
3 |  | 415 nm | 505 nm | 418 nm | 508 nm | CCN(CC)c1ccc(-n2nc3cc(N)cc(Cl)c3n2)cc1 [Compound 1, 7-chloro-2-(p-diethylaminophenyl)-2H-benzotriazolyl-5-amine] | n (number of binding site) ([3]; 0.1M phosphoric acid buffer pH 7.4, 3×10^-6 M α1-AG, Scatchard): 0.40; binding of the compound 1 to α1-AG ([3]; 1×10^-4 M α1-AG, ex 418 nm, em 508 nm): all of the compound 1 bound to α1 -AG; binding of the compound 1 to α1-AG ([3]; 3×10^-6 M α1-AG): under an equilibrium condition
4 |  | 385 nm | 480 nm | 396 nm | 482 nm | CNc1ccc(-n2nc3cc(N)cc(Cl)c3n2)cc1 [Compound 2, 7-chloro-2-(p-methylaminophenyl)-2H-benzotriazolyl-5-amine] | 
5 |  | 400 nm | 485 nm | 400 nm | 505 nm | Nc1cc(Cl)c2nn(-c3ccc(Nc4ccccc4)cc3)nc2c1 [Compound 3, 7-chloro-2-(p-anilinophenyl)-2H-benzotriazolyl-5-amine] | 
6 |  | 383 nm | 465 nm | 396 nm | 502 nm | Nc1cc(Cl)c2nn(-c3ccc(N4CCOCC4)cc3)nc2c1 [Compound 4, 7-chloro-2-(p-morpholinophenyl)-2H-benzotriazolyl-5-amine] | 
7 |  | 420 nm | 520 nm | 452 nm | 567 nm | CCOC(=O)c1cc(N)cc2nn(-c3ccc(N(CC)CC)cc3)nc12 [Compound 5, Ethyl 6-amino-2-(p-diethylaminophenyl)-2H-benzotriazole-4-carboxylate] | 
8 | 5.40 |  |  |  |  | COc1ccc([C@@H]2Sc3ccccc3N(CCN(C)C)C(=O)[C@@H]2OC(C)=O)cc1 [Diltiazem] | 
9 | 6.01 |  |  |  |  | COc1ccc2c(c1)N(C[C@H](C)CN(C)C)c1ccccc1S2 [Levomepromazine] | 
10 | 6.78 |  |  |  |  | COC(=O)C1=C(C)NC(C)=C(C(=O)OCCN(C)Cc2ccccc2)C1c1cccc([N+](=O)[O-])c1 (stereo not shown) [Nicardipine] | 
11 |  |  |  |  |  | CCC(c1ccccc1)c1c(O)c2ccccc2oc1=O (stereo not shown) [Phenprocoumon] | wavelength suitable for determination ([2]; M. Otagiri et al., J. of Pharmaceutical Sciences 76(8), 646-649 (1987)): short
12 | 4.94 |  |  |  |  | CC(CN1c2ccccc2Sc2ccccc21)N(C)C (stereo not shown) [Promethazine] | 
13 | 5.54 |  |  |  |  | CC(CN(C)C)CN1c2ccccc2CCc2ccccc21 (stereo not shown) [Trimipramine] | 

Row | Structure (SMILES) | log Kb (binding constant) [1] | Excitation Wavelength [4] | Fluorescence Wavelength [4] | Excitation Wavelength [5] | Fluorescence Wavelength [5] | other results
14 | CNCCCN1c2ccccc2CCc2ccccc21 [Desipramine] | 4.86 |  |  |  |  | 
15 | CN(C)CCCN1c2ccccc2CCc2ccccc21 [Imipramine] | 5.61 |  |  |  |  | 
16 | CC(C)NCC(O)COc1cccc2[nH]ccc12 (stereo not shown) [Pindolol] | 5.33 |  |  |  |  | 
